Where a SMILES comes first, the peptide text is derived from it. [ ]: non-standard residue; d: D form. The star is where a group is joined. Orn = NCCC[C@H](N)C(=O)O; Hexanoyl = CCCCCC(=O)*; Aib = CC(C)(N)C(=O)O

One data set deals with T1, human VPAC2 (Homo sapiens, UniProt P41587).
T1 construct: expressed in transfected cells
T1 sequence (P41587 24-438): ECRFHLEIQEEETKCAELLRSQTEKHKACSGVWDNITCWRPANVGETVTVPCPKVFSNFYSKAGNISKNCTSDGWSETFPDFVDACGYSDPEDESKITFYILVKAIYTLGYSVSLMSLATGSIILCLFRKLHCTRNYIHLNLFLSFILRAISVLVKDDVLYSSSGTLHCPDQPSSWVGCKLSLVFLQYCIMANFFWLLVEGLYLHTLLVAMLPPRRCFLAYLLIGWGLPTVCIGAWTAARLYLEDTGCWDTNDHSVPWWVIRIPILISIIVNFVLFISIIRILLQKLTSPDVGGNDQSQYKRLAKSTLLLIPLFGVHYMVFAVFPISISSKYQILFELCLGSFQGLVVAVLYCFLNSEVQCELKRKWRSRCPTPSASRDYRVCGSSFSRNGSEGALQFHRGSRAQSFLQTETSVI
In words: Alpha screen cAMP in vitro potency, human VPAC2 receptor. The following applies: cAMP generation; single result from two analyses performed in a single run; read-out: Human VPAC2 Receptor: Alpha Screen EC50. The data set is classed as cell-based. The essentials:
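Dissociated cells, 50,000 per point in stimulation buffer, were incubated with stimuli and AlphaScreen acceptor beads for 60 min.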

The nature of data set [1]: Rat serum stability studies (remaining active peptide by DiscoveRx cAMP on CHO-VPAC2 cells). In kind it is in vitro ADME. Here is the method:
Store the aliquot with aprotinin at 4° C. Store the aliquot without aprotinin at 37° C. […] […] Incubate in room temperature for 30 minutes. Remove the supernatant. […] Incubate on the shaker (300 rpm) for 1 hour. Proceed as normal with the DiscoveRx kit. Include cAMP standards in column 12. Determine EC50 values from the cAMP assay data.

Turning to `CCCCCC(=O)N[C@@H](Cc1c[nH]cn1)C(=O)N[C@@H](CO)C(=O)N[C@@H](CC(=O)O)C(=O)N[C@@H](C)C(=O)N[C@H](C(=O)N[C@@H](Cc1ccccc1)C(=O)N[C@H](C(=O)N[C@@H](CC(=O)O)C(=O)N[C@@H](CC(N)=O)C(=O)N[C@@H](Cc1ccc(O)cc1)C(=O)N[C@H](C(=O)N[C@@H](CCCNC(=N)N)C(=O)N[C@@H](CC(C)C)C(=O)N[C@@H](CCCNC(=N)N)C(=O)N[C@@H](CCCNC(=N)N)C(=O)N[C@@H](CCC(N)=O)C(=O)N[C@H](C(=O)N[C@@H](C)C(=O)N[C@@H](C)C(=O)N[C@@H](CCCCN)C(=O)N[C@@H](CCCNC(=N)N)C(=O)N[C@@H](Cc1ccc(O)cc1)C(=O)N[C@@H](CC(C)C)C(=O)N[C@@H](CCC(N)=O)C(=O)N[C@@H](CO)C(=O)N[C@H](C(=O)N[C@@H](CCCNC(=N)N)C(=O)N[C@@H](CC(N)=O)C(=O)NCC(=O)NCC(=O)N1CCC[C@H]1C(=O)N[C@@H](CO)C(=O)N[C@@H](CO)C(=O)NCC(=O)N[C@@H](C)C(=O)N1CCC[C@H]1C(=O)N1CCC[C@H]1C(=O)N1CCC[C@H]1C(=O)N[C@@H](CO)C(=O)O)[C@@H](C)CC)C(C)C)[C@@H](C)O)[C@@H](C)O)C(C)C` [Agonist P215] (Hexanoyl-HSDAVFTDNYTRLRRQVAAKRYLQSIRNGGPSSGAPPPS-OH; C-terminus assumed), the EC50 at human VPAC2 came to 0.09 nM. Besides, the “Rat Serum Stability (estimated purity in % after 18 hours)” value in data set [1] was 0.08%.
For `CCCCCC(=O)N[C@@H](Cc1c[nH]cn1)C(=O)N[C@@H](CO)C(=O)N[C@@H](CC(=O)O)C(=O)N[C@@H](C)C(=O)N[C@H](C(=O)N[C@@H](Cc1ccccc1)C(=O)N[C@H](C(=O)N[C@@H](CC(=O)O)C(=O)N[C@@H](CC(N)=O)C(=O)N[C@@H](Cc1ccc(O)cc1)C(=O)N[C@H](C(=O)N[C@@H](CCCNC(=N)N)C(=O)N[C@@H](CC(C)C)C(=O)N[C@@H](CCCNC(=N)N)C(=O)N[C@@H](CCCNC(=N)N)C(=O)N[C@@H](CCC(N)=O)C(=O)N[C@H](C(=O)N[C@@H](C)C(=O)N[C@@H](C)C(=O)N[C@@H](CCCNC(=N)N)C(=O)N[C@@H](CCCCN)C(=O)N[C@@H](Cc1ccc(O)cc1)C(=O)N[C@@H](CC(C)C)C(=O)N[C@@H](CCC(N)=O)C(=O)N[C@@H](CO)C(=O)N[C@H](C(=O)N[C@@H](CCCNC(=N)N)C(=O)N[C@@H](CC(N)=O)C(=O)NCC(=O)NCC(=O)N1CCC[C@H]1C(=O)N[C@@H](CO)C(=O)N[C@@H](CO)C(=O)NCC(=O)N[C@@H](C)C(=O)N1CCC[C@H]1C(=O)N1CCC[C@H]1C(=O)N1CCC[C@H]1C(=O)N[C@@H](CO)C(=O)O)[C@@H](C)CC)C(C)C)[C@@H](C)O)[C@@H](C)O)C(C)C` [Agonist P216] (Hexanoyl-HSDAVFTDNYTRLRRQVAARKYLQSIRNGGPSSGAPPPS-OH; C-terminus assumed) the same measures were 0.11 nM and 0.06%.
For `CCCCCC(=O)N[C@@H](Cc1c[nH]cn1)C(=O)N[C@@H](CO)C(=O)N[C@@H](CC(=O)O)C(=O)N[C@@H](C)C(=O)N[C@H](C(=O)N[C@@H](Cc1ccccc1)C(=O)N[C@H](C(=O)N[C@@H](CC(=O)O)C(=O)N[C@@H](CC(N)=O)C(=O)N[C@@H](Cc1ccc(O)cc1)C(=O)N[C@H](C(=O)N[C@@H](CCCNC(=N)N)C(=O)N[C@@H](CC(C)C)C(=O)N[C@@H](CCCNC(=N)N)C(=O)NC(C)(C)C(=O)N[C@@H](CCC(N)=O)C(=O)N[C@H](C(=O)N[C@@H](C)C(=O)N[C@@H](C)C(=O)NC(C)(C)C(=O)N[C@@H](CCCCN)C(=O)N[C@@H](Cc1ccc(O)cc1)C(=O)N[C@@H](CC(C)C)C(=O)N[C@@H](CCC(N)=O)C(=O)N[C@@H](CO)C(=O)N[C@H](C(=O)N[C@@H](CCCCN)C(=O)N1CCC[C@H]1C(=O)N[C@@H](CCCCN)C(=O)NCC(=O)NCC(=O)N1CCC[C@H]1C(=O)N[C@@H](CO)C(=O)N[C@@H](CO)C(=O)NCC(=O)N[C@@H](C)C(=O)N1CCC[C@H]1C(=O)N1CCC[C@H]1C(=O)N1CCC[C@H]1C(=O)N[C@@H](CO)C(=O)O)[C@@H](C)CC)C(C)C)[C@@H](C)O)[C@@H](C)O)C(C)C` [Agonist P350] (Hexanoyl-HSDAVFTDNYTRLR[Aib]QVAA[Aib]KYLQSIKPKGGPSSGAPPPS-OH; C-terminus assumed) the same measures were 0.13 nM and 25.83%.
For `CCCCCC(=O)N[C@@H](Cc1c[nH]cn1)C(=O)N[C@@H](CO)C(=O)N[C@@H](CC(=O)O)C(=O)N[C@@H](C)C(=O)N[C@H](C(=O)N[C@@H](Cc1ccccc1)C(=O)N[C@H](C(=O)N[C@@H](CC(=O)O)C(=O)N[C@@H](CC(N)=O)C(=O)N[C@@H](Cc1ccc(O)cc1)C(=O)N[C@H](C(=O)N[C@@H](CCCNC(=N)N)C(=O)N[C@@H](CC(C)C)C(=O)N[C@@H](CCCNC(=N)N)C(=O)NC(C)(C)C(=O)N[C@@H](CCC(N)=O)C(=O)N[C@H](C(=O)N[C@@H](C)C(=O)N[C@@H](C)C(=O)NC(C)(C)C(=O)N[C@@H](CCCCN)C(=O)N[C@@H](Cc1ccc(O)cc1)C(=O)N[C@@H](CC(C)C)C(=O)N[C@@H](CCC(N)=O)C(=O)N[C@@H](CO)C(=O)N[C@H](C(=O)N[C@@H](CCCCN)C(=O)N[C@@H](CCCCN)C(=O)NCC(=O)NCC(=O)N1CCC[C@H]1C(=O)N[C@@H](CO)C(=O)N[C@@H](CO)C(=O)NCC(=O)N[C@@H](C)C(=O)N1CCC[C@H]1C(=O)N1CCC[C@H]1C(=O)N1CCC[C@H]1C(=O)N[C@@H](CO)C(=O)O)[C@@H](C)CC)C(C)C)[C@@H](C)O)[C@@H](C)O)C(C)C` [Agonist P351] the same measures were 0.11 nM and 18.52%.
`CCCCCC(=O)N[C@@H](Cc1c[nH]cn1)C(=O)N[C@@H](CO)C(=O)N[C@@H](CC(=O)O)C(=O)N[C@@H](C)C(=O)N[C@H](C(=O)N[C@@H](Cc1ccccc1)C(=O)N[C@H](C(=O)N[C@@H](CC(=O)O)C(=O)N[C@@H](CC(N)=O)C(=O)N[C@@H](Cc1ccc(O)cc1)C(=O)N[C@H](C(=O)N[C@@H](CCCNC(=N)N)C(=O)N[C@@H](CC(C)C)C(=O)N[C@@H](CCCNC(=N)N)C(=O)NC(C)(C)C(=O)N[C@@H](CCC(N)=O)C(=O)N[C@H](C(=O)N[C@@H](C)C(=O)N[C@@H](C)C(=O)NC(C)(C)C(=O)N[C@@H](CCCCN)C(=O)N[C@@H](Cc1ccc(O)cc1)C(=O)N[C@@H](CC(C)C)C(=O)N[C@@H](CCC(N)=O)C(=O)N[C@@H](CO)C(=O)N[C@H](C(=O)N[C@@H](CCCCN)C(=O)NC(C)(C)C(=O)NCC(=O)NCC(=O)N1CCC[C@H]1C(=O)N[C@@H](CO)C(=O)N[C@@H](CO)C(=O)NCC(=O)N[C@@H](C)C(=O)N1CCC[C@H]1C(=O)N1CCC[C@H]1C(=O)N1CCC[C@H]1C(=O)N[C@@H](CO)C(=O)O)[C@@H](C)CC)C(C)C)[C@@H](C)O)[C@@H](C)O)C(C)C` [Agonist P355]: on human VPAC2, the EC50 was 0.1 nM. Moreover, the “Rat Serum Stability (estimated purity in % after 18 hours)” value in data set [1] is on record as 35.94%.
Consider `CCCCCC(=O)N[C@@H](Cc1c[nH]cn1)C(=O)N[C@@H](CO)C(=O)N[C@@H](CC(=O)O)C(=O)N[C@@H](C)C(=O)N[C@H](C(=O)N[C@@H](Cc1ccccc1)C(=O)N[C@H](C(=O)N[C@@H](CC(=O)O)C(=O)N[C@@H](CC(N)=O)C(=O)N[C@@H](Cc1ccc(O)cc1)C(=O)N[C@H](C(=O)N[C@@H](CCCN)C(=O)N[C@@H](CC(C)C)C(=O)N[C@@H](CCCNC(=N)N)C(=O)NC(C)(C)C(=O)N[C@@H](CCC(N)=O)C(=O)N[C@@H](CC(C)C)C(=O)N[C@@H](C)C(=O)N[C@@H](C)C(=O)NC(C)(C)C(=O)N[C@@H](CCCCN)C(=O)N[C@@H](Cc1ccc(O)cc1)C(=O)N[C@@H](CC(C)C)C(=O)N[C@@H](CCC(N)=O)C(=O)N[C@@H](CO)C(=O)N[C@H](C(=O)N[C@@H](CCCN)C(=O)N[C@@H](CC(N)=O)C(=O)N[C@@H](CCCN)C(=O)NCC(=O)NCC(=O)N1CCC[C@H]1C(=O)N[C@@H](CO)C(=O)N[C@@H](CO)C(=O)NCC(=O)N[C@@H](C)C(=O)N1CCC[C@H]1C(=O)N1CCC[C@H]1C(=O)N1CCC[C@H]1C(=O)N[C@@H](CO)C(=O)O)[C@@H](C)CC)[C@@H](C)O)[C@@H](C)O)C(C)C` [Agonist P364] (Hexanoyl-HSDAVFTDNYT[Orn]LR[Aib]QLAA[Aib]KYLQSI[Orn]N[Orn]GGPSSGAPPPS-OH; C-terminus assumed), for which the EC50 on human VPAC2 was found to be 0.11 nM. Moreover, the “Rat Serum Stability (estimated purity in % after 18 hours)” value in data set [1] was 86.23%.

The values above are taken from patent publication US20080026996A1, “Selective Vpac2 Receptor Reptide Agonists” (ELI LILLY AND COMPANY, priority 2004, published 2008).
